Test results reported in patent publication US20080139596A1, “Modulators of Hcv Replication” (priority 2004, published 2008).

Experiments:
[1] = system: wt Con1 replicon; assay type: cell-based; settings: 8 μM; 4 days of incubation; wt Con1 replicon in 10A-IFN cells
[2] = system: hyperphosphorylated NS5A (p58) in HB68 cells; experiment: NS5A hyperphosphorylation assay (radiolabelling, immunoprecipitation, SDS-PAGE); assay type: cell-based, Hepatitis C virus; settings: 5 μM; for formation of the hyperphosphorylated form of NS5A (p58) / NS5A phosphorylation: 35S-methionine or 32P-orthophosphate labelling
Protocol: The presence of hyperphosphorylated NS5A (p58) was evaluated in Huh7-HB68 cells. Proteins were labeled either with ^35S-methionine (lanes 2-5) or with ^32P-orthophosphate (lanes 7-10) in the presence of DMSO (lanes 2 and 7) or with 5 μM of Compound (1) (lanes 3 and 8), Compound (2) (lanes 4 and 9) or SB203580 (lanes 5 and 10). After the radiolabelling, protein extract was prepared, NS5A was immunoprecipitated and proteins were loaded on a 7.5% SDS-PAGE and autoradiographed. The sizes of molecular weight marker proteins are indicated in lanes 1 and 6.
Inhibition of NS5A hyperphosphorylation in intact cells was measured by determining the amount of hyperphosphorylated NS5A (p58) in cells expressing HCV NS5A in the context of a polyprotein comprising at least NS3, NS4A, NS4B, and NS5A (Neddermann et al., J Virol 73, 9984-9991, 1999). […] HBI10 and HB68 are Huh-7 derived-cell lines described in WO2002/059321.
Hyperphosphorylated NS5A was detected as a protein that i) migrates with an apparent molecular weight of about 58 kDa in SDS PAGE, and ii) is immunoreactive with anti-NS5A antibodies. Thus, the amount of hyperphosphorylated NS5A was detected by immunoprecipitation of radioactively labeled proteins.
HBI10 or HB68 were cultured in Dulbecco's modified Eagle medium (DMEM) supplemented with 10% fetal bovine serum (FBS) in the presence of 0.8 mg/ml of G418 (Geneticin; Gibco/BRL). For starvation prior to radioactive protein labeling, minimal essential medium without methionine (Gibco/BRL) was used. For protein labeling, 100 μCi/ml of ^35S-labelled methionine (Promix, Amersham, Cat. No. SJQ0079, 1000 Ci/mmole) was added to the cells.
• 1. HBI10 or HB68 cells were grown to 80% confluency in 6-well plates. • 2. Compound to be tested, dissolved in DMSO at 100× concentration, was added to each well. • 3. One hour later, the medium was removed and replaced with Minimal Essential Medium without methionine. This step is omitted in the case of 32P-orthophosphate labeling. • 4. Compound to be tested, dissolved in DMSO at 100× concentration, was freshly added to each well. • 5. One hour later 100 μCi of ^35S-labelled methionine per ml of Minimal Essential Medium without methionine was added to each well for 35S-metabolic labeling together with the compound to be tested, dissolved in DMSO at 100× concentration. In the case of 32P-labelling, cells were washed once with Dulbecco's modified Eagle's medium without phosphate (ICN) and labeled for 4 hours in the same medium containing 500 μCi/ml of [32P]-orthophosphate (285.5 Ci/mg, NEN) together with the compound to be tested, dissolved in DMSO at 100× concentration. • 6. After 4 hours, cells were harvested from each well and individual cell extracts were prepared in 100 μl of cell lysis buffer. • 7. […]

[3] = system: replicon m17 (E1202G in NS3); assay type: cell-based; settings: 8 μM; 4 days of incubation; replicon m17 in 10A-IFN cells
[4] = system: wild type Con1 replicon; experiment: Beta-lactamase gene reporter assay (BLA-assay), replicon electroporated in 10A-IFN cells; assay type: cell-based, Hepatitis C virus; settings: 8 μM, added two hours after electroporation, 4 days of incubation
Protocol: The BLA-assay was performed after 4 days of incubation in the presence of the compounds to be tested according to Murray et al., J Virol 77, 2928-35, 2003. Briefly, medium was removed, and cells were stained for 90 min with CCF4-AM (Aurora Biosciences Corp.) in Dulbecco's modified Eagle's medium supplemented with 25 mM HEPES, pH 8.0. For quantitation of the fraction of cells harboring bla replicons, cells were photographed by using a digital charge-coupled device color camera and green and blue cells were counted. Another method for measuring beta-lactamase activity is using a fluorescence plate reader that quantitates the amount of green (530 nm) or blue (460 nm) fluorescence emitted by cells stimulated with light of 405 nm.
A subgenomic replicon was used in which the original neomycin phosphotransferase (neo) gene was replaced by the β-lactamase (bla) gene (WO2003089672 A1 and Murray et al., J Virol 77, 2928-2935, 2003). Cells actively replicating HCV express β-lactamase and show a fluorescent blue staining after incubation with a diffusible β-lactamase substrate (BLA-assay). Replicon RNA was electroporated in 10A-IFN cells and compounds were added at a concentration of 8 μM two hours after electroporation. The BLA-assay was performed after 4 days of incubation in the presence of the compounds to be tested according to Murray et al., J Virol 77, 2928-35, 2003. Briefly, medium was removed, and cells were stained for 90 min with CCF4-AM (Aurora Biosciences Corp.) in Dulbecco's modified Eagle's medium supplemented with 25 mM HEPES, pH 8.0. For quantitation of the fraction of cells harboring bla replicons, cells were photographed by using a digital charge-coupled device color camera and green and blue fluorescent cells were counted. Alternatively, fluorescence was measured by using a CytoFluor 4000 fluorescence plate reader.
The control compound SB203580 had no effect on HCV replication.

[5] = system: Con1 replicon carrying the adaptive mutation S2204I (SI); assay type: cell-based, Hepatitis C virus; settings: SI replicon (low amounts of hyperphosphorylated NS5A); 10A-IFN cells; 4 days; Cell-ELISA; read-out: IC50, inhibition of HCV replication
[6] = system: Con1 replicon carrying the adaptive mutation A2199T (AT); assay type: cell-based, Hepatitis C virus; settings: AT replicon (high amounts of hyperphosphorylated NS5A); 10A-IFN cells; 4 days; Cell-ELISA; read-out: IC50, inhibition of HCV replication
[7] = system: wt Con1 replicon; experiment: HCV-specific RNA by real-time reverse transcription PCR (TaqMan) in 10A-IFN cells; assay type: cell-based, Hepatitis C virus; settings: 8 μM; 4 days; wt Con1 replicon in 10A-IFN cells; quantitative PCR
Protocol: (§1) RNA was transcribed from the plasmids wt, wt-GAA, m17, SA, m17/SA and m17-GAA and electroporated into 10A-IFN cells. Cells were incubated for four days without or with 8 μM of Compound (1), Compound (2) or SB203580.
(§2) (A) HCV-specific RNA analysis using quantitative RT-PCR. Total cellular RNA was extracted and HCV-specific RNA was quantified as described in Materials and Methods. On the Y-axis is shown the fold-induction with respect to the DMSO control (black bar), Compound (1) (dark grey bar), Compound (2) (light grey bar) or SB203580 (dotted bar). Replicon RNA is indicated at the bottom of the figure.
(§3) Replicon RNA was extracted from selected clones either using the Qiagen RNAeasy minikit following manufacturer instructions or as described by Chomczynski et al., 1987. Anal. Biochem. 162, 156-159. TaqMan analysis was typically performed using 10 ng of RNA in a reaction mix (TaqMan Gold RT-PCR kit, Perkin Elmer Biosystems) either with HCV specific oligos/probe (as disclosed in published International application WO02/059321) or with human beta-actin specific oligos/probe (Pre-Developed TaqMan Assay Reagents, Endogenous Control Human beta-actin, Part Number 4310881E, Applied Biosystems). PCR was performed using a Perkin Elmer ABI PRISM 7700 under the following conditions: 30 minutes at 48° C. (the RT step), 10 minutes at 95° C. and 40 cycles: 15 seconds at 95° C. and 1 minute at 60° C. Quantitative calculations were obtained using the Comparative CT Method (described in User Bulletin #2, ABI PRISM 7700 Sequence Detection System, Applied Biosystem, December 1997) considering the level of GAPDH mRNA constant. All calculations of HCV RNA are expressed as fold difference over a specific control.
(§4) A similar experiment was carried out in order to detect HCV-specific RNA using real-time reverse transcription PCR amplification (FIG. 2A). […] Compound (1) induced replication of wt Con1 replicon 6-fold as measured by quantitative PCR, whereas induction of replication by the other compounds was below background (wt). […]

[8] = system: subgenomic replicons with the synergistic mutation in NS3 (m17); experiment: as above; assay type: cell-based, Hepatitis C virus; settings: 8 μM; 4 days; m17 replicon in 10A-IFN cells; quantitative PCR
Protocol: as §1, §2, §3, §4

Compound | presence of NS5A by immunoblot [1] | formation of the hyperphosphorylated form of NS5A (p58) / NS5A phosphorylation [2] | activation of replication (NS5A by immunoblot) [3] | HCV replication (fluorescent blue cells, BLA-assay) [4] | IC50 [5] | IC50 [6] | fold-induction of HCV-RNA with respect to the DMSO control [7] | fold-induction of HCV-RNA with respect to the DMSO control [8] | NS5A expression [2]
CNc1nccc(-c2[nH]c(C3CCNCC3)nc2-c2cccc(C(F)(F)F)c2)n1 [Compound (1), N-methyl-4-{2-piperidin-4-yl-4-[3-(trifluoromethyl)phenyl]-1H-imidazol-5-yl}pyrimid-2-amine] | NS5A could be detected | inhibited the formation of the hyperphosphorylated form of NS5A | more potent | resulted in the production of fluorescent blue cells | 500 nM | 5000 nM | 6 fold | 312 fold | 
CN1CCC(c2nc(-c3ccncc3)c(-c3ccc(F)cc3)[nH]2)CC1 [Compound (2), 4-[5-(4-fluorophenyl)-2-(1-methylpiperidin-4-yl)-1H-imidazol-4-yl]pyridine] | no protein was visible | inhibited the formation of the hyperphosphorylated form of NS5A | less potent activator | resulted in the production of fluorescent blue cells | 500 nM | 5000 nM |  | 58 fold | 
C[S+]([O-])c1ccc(-c2nc(-c3ccncc3)c(-c3ccc(F)cc3)[nH]2)cc1 (stereo not shown) [SB203580, reference compound] | no NS5A was visible | no effect |  | no effect |  |  |  |  | no effect
